Source: ChEMBL document CHEMBL3861943 (Medchemcomm, 2016)

Columns and labels:
[1] = Cytotoxicity against human BxPC3 cells assessed as decrease in cell proliferation after 72 hrs by MTT reduction assay; format: functional, cell-based; details: BXPC-3, 72 h
[2] = Cytotoxicity against human HCT116 cells assessed as decrease in cell proliferation after 72 hrs by MTT reduction assay; format: functional, cell-based; details: HCT-116, 72 h
[3] = Cytotoxicity against human WI38 cells assessed as decrease in cell proliferation after 72 hrs by MTT reduction assay; format: toxicity, cell-based, WI-38
[4] = biological target: Dihydroorotate dehydrogenase (quinone), mitochondrial (Homo sapiens, UniProt Q02127); test: Inhibition of recombinant human DHODH by DCIP-based assay; format: single protein
[5] = system: HCT-116; test: Induction of apoptosis in human HCT116 cells assessed as late apoptotic cells at 0.2 uM after 36 hrs by annexin V-FITC/propidium iodide staining-based flow cytometric method (reference value: 3.84%); format: functional
[6] = system: HCT-116; test: Induction of apoptosis in human HCT116 cells assessed as late apoptotic cells at 0.2 uM after 24 hrs by annexin V-FITC/propidium iodide staining-based flow cytometric method (reference value: 3.84%); format: functional
[7] = system: BXPC-3; test: Induction of apoptosis in human BxPC3 cells assessed as viable cells at 0.2 uM after 48 hrs by annexin V-FITC/propidium iodide staining-based flow cytometric method (reference value: 91.8%); format: functional; details: BXPC-3, 48 h, read-out: Activity
[8] = system: BXPC-3; test: Induction of apoptosis in human BxPC3 cells assessed as early apoptotic cells at 0.2 uM after 24 hrs by annexin V-FITC/propidium iodide staining-based flow cytometric method (reference value: 0.344%); format: functional
[9] = system: BXPC-3; test: Induction of apoptosis in human BxPC3 cells assessed as necrotic cells at 0.2 uM after 24 hrs by annexin V-FITC/propidium iodide staining-based flow cytometric method (reference value: 1.15%); format: functional
[10] = system: BXPC-3; test: Induction of apoptosis in human BxPC3 cells assessed as necrotic cells at 0.2 uM after 48 hrs by annexin V-FITC/propidium iodide staining-based flow cytometric method (reference value: 1.15%); format: functional
[11] = system: HCT-116; test: Induction of apoptosis in human HCT116 cells assessed as viable cells at 0.2 uM after 48 hrs by annexin V-FITC/propidium iodide staining-based flow cytometric method (reference value: 91.8%); format: functional; details: HCT-116, 48 h, read-out: Activity
[12] = system: BXPC-3; test: Induction of apoptosis in human BxPC3 cells assessed as late apoptotic cells at 0.2 uM after 48 hrs by annexin V-FITC/propidium iodide staining-based flow cytometric method (reference value: 6.73%); format: functional
[13] = system: HCT-116; test: Induction of apoptosis in human HCT116 cells assessed as necrotic cells at 0.2 uM after 36 hrs by annexin V-FITC/propidium iodide staining-based flow cytometric method (reference value: 2.14%); format: functional
[14] = system: HCT-116; test: Induction of apoptosis in human HCT116 cells assessed as early apoptotic cells at 0.2 uM after 24 hrs by annexin V-FITC/propidium iodide staining-based flow cytometric method (reference value: 2.25%); format: functional
[15] = system: BXPC-3; test: Induction of apoptosis in human BxPC3 cells assessed as viable cells at 0.2 uM after 24 hrs by annexin V-FITC/propidium iodide staining-based flow cytometric method (reference value: 91.8%); format: functional; details: BXPC-3, 24 h, read-out: Activity
[16] = system: BXPC-3; test: Induction of apoptosis in human BxPC3 cells assessed as early apoptotic cells at 0.2 uM after 36 hrs by annexin V-FITC/propidium iodide staining-based flow cytometric method (reference value: 0.344%); format: functional
[17] = system: BXPC-3; test: Induction of apoptosis in human BxPC3 cells assessed as viable cells at 0.2 uM after 36 hrs by annexin V-FITC/propidium iodide staining-based flow cytometric method (reference value: 91.8%); format: functional; details: BXPC-3, 36 h, read-out: Activity
[18] = system: HCT-116; test: Induction of apoptosis in human HCT116 cells assessed as early apoptotic cells at 0.2 uM after 48 hrs by annexin V-FITC/propidium iodide staining-based flow cytometric method (reference value: 2.25%); format: functional
[19] = system: HCT-116; test: Induction of apoptosis in human HCT116 cells assessed as necrotic cells at 0.2 uM after 48 hrs by annexin V-FITC/propidium iodide staining-based flow cytometric method (reference value: 2.14%); format: functional
[20] = system: BXPC-3; test: Induction of apoptosis in human BxPC3 cells assessed as early apoptotic cells at 0.2 uM after 48 hrs by annexin V-FITC/propidium iodide staining-based flow cytometric method (reference value: 0.344%); format: functional
[21] = system: HCT-116; test: Induction of apoptosis in human HCT116 cells assessed as late apoptotic cells at 0.2 uM after 48 hrs by annexin V-FITC/propidium iodide staining-based flow cytometric method (reference value: 3.84%); format: functional
[22] = system: HCT-116; test: Induction of apoptosis in human HCT116 cells assessed as viable cells at 0.2 uM after 24 hrs by annexin V-FITC/propidium iodide staining-based flow cytometric method (reference value: 91.8%); format: functional; details: HCT-116, 24 h, read-out: Activity
[23] = system: BXPC-3; test: Induction of apoptosis in human BxPC3 cells assessed as late apoptotic cells at 0.2 uM after 24 hrs by annexin V-FITC/propidium iodide staining-based flow cytometric method (reference value: 6.73%); format: functional
[24] = system: BXPC-3; test: Induction of apoptosis in human BxPC3 cells assessed as late apoptotic cells at 0.2 uM after 36 hrs by annexin V-FITC/propidium iodide staining-based flow cytometric method (reference value: 6.73%); format: functional
[25] = system: BXPC-3; test: Induction of apoptosis in human BxPC3 cells assessed as necrotic cells at 0.2 uM after 36 hrs by annexin V-FITC/propidium iodide staining-based flow cytometric method (reference value: 1.15%); format: functional
[26] = system: HCT-116; test: Induction of apoptosis in human HCT116 cells assessed as viable cells at 0.2 uM after 36 hrs by annexin V-FITC/propidium iodide staining-based flow cytometric method (reference value: 91.8%); format: functional; details: HCT-116, 36 h, read-out: Activity
[27] = system: HCT-116; test: Induction of apoptosis in human HCT116 cells assessed as early apoptotic cells at 0.2 uM after 36 hrs by annexin V-FITC/propidium iodide staining-based flow cytometric method (reference value: 2.25%); format: functional
[28] = system: HCT-116; test: Induction of apoptosis in human HCT116 cells assessed as necrotic cells at 0.2 uM after 24 hrs by annexin V-FITC/propidium iodide staining-based flow cytometric method (reference value: 2.14%); format: functional

Dihydroorotate dehydrogenase (quinone), mitochondrial, sequence (Q02127 whole entry): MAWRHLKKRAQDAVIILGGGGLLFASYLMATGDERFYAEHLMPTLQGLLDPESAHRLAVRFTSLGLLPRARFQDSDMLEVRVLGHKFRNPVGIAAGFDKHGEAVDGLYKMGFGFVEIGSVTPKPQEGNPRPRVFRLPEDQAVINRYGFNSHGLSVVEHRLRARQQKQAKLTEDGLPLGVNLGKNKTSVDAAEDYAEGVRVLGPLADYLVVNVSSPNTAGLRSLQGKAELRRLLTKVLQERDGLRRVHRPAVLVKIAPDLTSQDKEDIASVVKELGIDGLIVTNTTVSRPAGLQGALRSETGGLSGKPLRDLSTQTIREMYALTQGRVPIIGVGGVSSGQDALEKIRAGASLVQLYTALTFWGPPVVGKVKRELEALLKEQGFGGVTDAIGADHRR

In the case of `Cc1sc(N/N=C/c2ccccc2C(=O)O)nc1-c1ccccc1Cl`, the IC50 [1] is reported as 2970 nM, the IC50 [2] is reported as 375 nM and the IC50 at 72 h [3] is reported as 44.6 µM.
With `CCCC(C)N(/N=C/c1ccccc1C(=O)O)c1nc(-c2ccccc2Cl)c(C)s1` (centres undefined) the IC50 [1] was 801 nM, the IC50 [2] was 181 nM and the IC50 at 72 h [3] was 10.1 µM.
With `O=C(O)c1ccccc1/C=N/Nc1nc(-c2ccccc2Cl)cs1` the IC50 [1] was 3410 nM, the IC50 [2] was 713 nM and the IC50 at 72 h [3] was 39.1 µM. It also gave an IC50 [4] of 29 nM.
`O=C(O)c1ccccc1/C=N/N(CCO)c1nc(-c2ccccc2Cl)cs1` gave an IC50 [1] of 4320 nM, an IC50 [2] of 763 nM and an IC50 at 72 h [3] of 48.7 µM. For the same compound, the IC50 [4] was 425 nM.
`CCCN(/N=C/c1ccccc1C(=O)O)c1nc(-c2ccccc2Cl)cs1` showed an IC50 [1] of 263 nM, an IC50 [2] of 276 nM and an IC50 at 72 h [3] of 10.8 µM. For the same compound, the IC50 [4] was 9 nM.
`CCN(/N=C/c1ccccc1C(=O)O)c1nc(-c2ccccc2Cl)cs1` showed an IC50 [1] of 199 nM, an IC50 [2] of 299 nM and an IC50 at 72 h [3] of 9.98 µM. It also gave an IC50 [4] of 59 nM.
Compound `CN(/N=C/c1ccccc1C(=O)O)c1nc(-c2cccc(Cl)c2)cs1` has an IC50 [1] of 1590 nM, an IC50 [2] of 268 nM and an IC50 at 72 h [3] of 6.57 µM.
Compound `CCc1sc(N/N=C/c2ccccc2C(=O)O)nc1-c1ccccc1Cl` has an IC50 [1] of 2790 nM, an IC50 [2] of 922 nM and an IC50 at 72 h [3] of 22.4 µM.
With `Cc1ccc(/C=N/N(C)c2nc(-c3ccccc3Cl)cs2)c(C(=O)O)c1` the IC50 [1] was 203 nM, the IC50 [2] was 54 nM and the IC50 at 72 h [3] was 17 µM. It also gave an IC50 [4] of 8 nM.
`CCCC(C)N(/N=C/c1ccccc1C(=O)O)c1nc(-c2ccccc2Cl)cs1` (centres undefined) gave an IC50 [1] of 988 nM, an IC50 [2] of 588 nM and an IC50 at 72 h [3] of 29.1 µM.
Compound `CCC(C)N(/N=C/c1ccccc1C(=O)O)c1nc(-c2ccccc2Cl)cs1` (centres undefined) has an IC50 [1] of 536 nM, an IC50 [2] of 244 nM and an IC50 at 72 h [3] of 8.3 µM. It also gave an IC50 [4] of 24 nM.
For `Cc1ccc(/C=N/N(C)c2nc(-c3ccccc3)c(C)s2)c(C(=O)O)c1`, the IC50 [1] was 300 nM, the IC50 [2] was 87 nM and the IC50 at 72 h [3] was 41.8 µM.
In the case of `CC(C)N(/N=C/c1ccccc1C(=O)O)c1nc(-c2ccccc2Cl)cs1`, the IC50 [1] is reported as 312 nM, the IC50 [2] is reported as 108 nM and the IC50 at 72 h [3] is reported as 18.8 µM. For the same compound, the IC50 [4] was 93 nM.
In the case of `CN(/N=C/c1ccccc1C(=O)O)c1nc(-c2cc(Cl)ccc2Cl)cs1`, the IC50 [1] is reported as 1610 nM, the IC50 [2] is reported as 301 nM and the IC50 at 72 h [3] is reported as 61 µM.
Work on `O=C(O)c1ccccc1/C=N/Nc1nc(-c2ccccc2)cs1` yielded an IC50 [1] of 18900 nM, an IC50 [2] of 880 nM and an IC50 at 72 h [3] of 34.2 µM. For the same compound, the IC50 [4] was 139 nM.
`CN(/N=C/c1ccc(C(F)(F)F)cc1C(=O)O)c1nc(-c2ccccc2Cl)cs1` gave an IC50 [1] of 2980 nM, an IC50 [2] of 2000 nM and an IC50 at 72 h [3] of 60.9 µM.
Compound `CN(/N=C/c1ccc(F)cc1C(=O)O)c1nc(-c2ccccc2Cl)cs1` has an Activity [5] of 7.5%, an Activity [6] of 3.11% and a viability at 0.2 µM [7] of 4.8%. It also gave an Activity [8] of 1.01%, an Activity [9] of 3.23% and an Activity [10] of 1.59%. For the same compound, the viability at 0.2 µM [11] was 68.3%, the Activity [12] was 93.2% and the IC50 [1] was 88 nM. It also gave an IC50 [2] of 23 nM, an Activity [13] of 1.46% and an Activity [14] of 3.11%. It also gave an IC50 at 72 h [3] of 29.7 µM, a viability at 0.2 µM [15] of 80.4% and an IC50 [4] of 2 nM. It also gave an Activity [16] of 0.701%, a viability at 0.2 µM [17] of 39.3% and an Activity [18] of 4.59%. For the same compound, the Activity [19] was 1.67%, the Activity [20] was 0.392% and the Activity [21] was 25.4%. The viability at 0.2 µM [22] was 92%, the Activity [23] was 15.4% and the Activity [24] was 52.6%. The Activity [25] was 7.38%, the viability at 0.2 µM [26] was 86.5% and the Activity [27] was 4.54%. The Activity [28] was 1.78%.
Work on `Cc1sc(N/N=C/c2ccccc2C(=O)O)nc1-c1ccccc1` yielded an IC50 [1] of 19800 nM, an IC50 [2] of 6420 nM and an IC50 at 72 h [3] of 21.5 µM.
Work on `CN(/N=C/c1ccccc1C(=O)O)c1nc(-c2ccccc2Cl)cs1` yielded an IC50 [1] of 80 nM, an IC50 [2] of 31 nM and an IC50 at 72 h [3] of 9.58 µM. The IC50 [4] was 8 nM.
Work on `Cc1c(-c2ccc(-c3ccccc3F)cc2)nc2ccc(F)cc2c1C(=O)O` [BREQUINAR SODIUM] yielded an IC50 [1] of 940 nM, an IC50 [2] of 158 nM and an IC50 at 72 h [3] of 34 µM.
